Results on 9 compounds are retold here after patent publication US20240025924A1, “HETEROCYCLE SUBSTITUTED KETONE DERIVATIVE, AND COMPOSITION AND MEDICINAL USE THEREOF” (SHANGHAI HAIYAN PHARMACEUTICAL TECHNOLOGY CO., LTD., priority 2021, published 2024).

In assay [1] the target is T1, SHP-2 enzyme (Homo sapiens, UniProt Q06124).
T1 construct: Homogeneous Full Length SHP-2 Assay Kit (BPS Bioscience #79330); purchased BPS Bioscience 79330
T1 sequence (Q06124 1-593): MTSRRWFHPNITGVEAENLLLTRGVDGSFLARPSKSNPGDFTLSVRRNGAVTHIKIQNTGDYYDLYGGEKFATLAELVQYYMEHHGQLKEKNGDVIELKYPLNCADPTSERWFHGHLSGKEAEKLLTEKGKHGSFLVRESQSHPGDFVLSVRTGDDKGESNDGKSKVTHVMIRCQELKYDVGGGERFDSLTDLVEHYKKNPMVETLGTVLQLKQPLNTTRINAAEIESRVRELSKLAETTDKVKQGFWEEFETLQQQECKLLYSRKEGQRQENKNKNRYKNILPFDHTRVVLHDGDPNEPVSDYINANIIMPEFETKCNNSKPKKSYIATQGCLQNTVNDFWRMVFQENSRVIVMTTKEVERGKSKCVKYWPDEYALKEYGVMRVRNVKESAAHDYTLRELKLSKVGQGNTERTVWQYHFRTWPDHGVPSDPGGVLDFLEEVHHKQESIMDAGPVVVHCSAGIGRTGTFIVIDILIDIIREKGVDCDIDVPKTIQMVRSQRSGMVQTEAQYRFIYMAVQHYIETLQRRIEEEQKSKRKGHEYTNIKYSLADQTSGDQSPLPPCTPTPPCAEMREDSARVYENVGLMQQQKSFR
Kind of assay: Phosphatase activity assay (Homogeneous Full Length SHP-2 Assay Kit, DiFMUP substrate). In kind it is biochemical. The note with it: full length SHP-2 activated with 0.5 μM SHP-2 activating Peptide; 1 hour co-incubation; DiFMUP 50 μM, 30 min. Put shortly: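 Full-length SHP-2 (0.04 ng/μL) was activated with 0.5 μM activating peptide in buffer with 2.5 mM DTT, co-incubated 1 h with compound (0.5 nM to 1 μM) or 0.1% DMSO. Reaction was started with 50 μM DiFMUP, and fluorescence (ex 350/em 460 nm) was read after 30 min to give IC50.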

Assay [2] has as its system MV-4-11 cell. Kind of assay: Cell proliferation assay (Cell Titer-Glo). In kind it is cell-based. The note with it: Homo sapiens, MV4-11, 96 h, inhibition of MV-4-11 cell proliferation; Cell Titer-Glo on day 4. The gist of the method:
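MV-4-11 cells were seeded in IMDM with 10% FBS, cultured 24 h, then given the compounds at a range of concentrations (0.1% DMSO final). On day 4, viability was read by Cell Titer-Glo luminescence after 15 min mixing at 25 °C.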
(In general: ATP-based viability assays read luminescence as a measure of living cells.)

Assay [3] deals with T2, hERG potassium channel (Homo sapiens, UniProt Q12809).
T2 construct: expressed in transfected cells; host or cells: CHO (Chinese hamster ovary) cells stably expressing hERG
Kind of assay: Inhibition of hERG potassium channel current, manual patch clamp in CHO cells stably expressing hERG. In kind it is cell-based. The note with it: whole-cell patch clamp, room temperature. As to the method: The electrophysiological manual patch clamp method was used to test the effect of the compounds on the current of hERG potassium channel (human Ether-a-go-go Related Gene potassium channel).
CHO cells stably expressing hERG were cultured in a cell Petri dish having a diameter of 35 mm, placed in an incubator at 37° C. and with 5% CO2, and passaged every 48 hours at a ratio of 1:5. The culture medium formula was: 90% F12 (Invitrogen), 10% fetal bovine serum (Gibco), 100 μg/mL G418 (Invitrogen), and 100 μg/mL Hygromycin B (Invitrogen). On the day of the test, the cell culture medium was sucked away, and the cells were washed with extracellular fluid once. Then 0.25% Trypsin-EDTA (Invitrogen) solution was added, and the cells was digested at room temperature for 3-5 min. The digestive fluid was sucked away, and the cells were resuspended with extracellular fluid, and transferred to the experimental dish for electrophysiological recording.
On the day of test, the compounds were prepared using DMSO into mother solution with concentration of 20 mM, and then serial dilution with DMSO was performed three times, i.e., 10 μL of the solution was added to 20 μL of DMSO, then 10 μL of the serial diluted solution of the compounds in DMSO was added to 4990 μL of extracellular fluid, and 500 times of dilution was performed to obtain the final concentration to be tested.
The hERG potassium channel currents of CHO (Chinese hamster ovary) cells stably expressing hERG potassium channels were recorded using whole-cell patch clamp technique at room temperature. The glass microelectrodes were made from glass electrode blanks (BF150-86-10, Sutter) by pulling through a puller, and the tip resistance was about 2-5 MΩ after filling the electrode with the inner liquid. The glass microelectrodes could be connected to a patch clamp amplifier by inserting them into the amplifier probe. Clamp voltage and data recording were controlled and recorded by a computer using software pClamp 10 with a sampling frequency of 10 kHz and a filtering frequency of 2 kHz. After obtaining a whole-cell recording, the cell was clamped at −80 mV, and the step voltage inducing hERG potassium current (IhERG) was given a depolarizing voltage from −80 mV to +20 mV for 2 s, and repolarized to −50 mV for 1 s, then returning to −80 mV. This voltage stimulus was given every 10 s. After it is determined that the potassium hERG current was stable (for 1 min), the dosing process was initiated. The compounds were administered for at least 1 min at each tested concentration, and at least 2 cells (n≥2) were tested at each concentration.
Data analysis and processing were conducted using softwares pClamp 10, GraphPad Prism 5, and Excel. The degree of inhibitory activity of different compound concentrations on hERG potassium current (peak value of hERG tail current induced at −50 mV) was calculated using the following formula: Inhibition %=[1−(I/Io)]×100%. Among them, Inhibition % represents the percentage inhibition of the compound on hERG potassium current, and I and Io represent the amplitude of hERG potassium current after and before dosing, respectively.
IC50 of the compounds was calculated using software GraphPad Prism 5 by fitting the following equation: Y=Bottom+(Top−Bottom)/(1+10^(Log IC50−X)*HillSlope). Among them, X is the Log value of the detection concentration of test material, Y is the inhibition percentage at the corresponding concentration, and Bottom and Top are the minimum and maximum inhibition percentages, respectively.
A general note: Block of hERG is tested as a sign of cardiac risk.

Assay [4] deals with human esophageal squamous carcinoma cell line KYSE-520. The assay is described as follows: KYSE-520 subcutaneous transplantation tumor model. The note with it: KYSE-520 subcutaneous tumor, female Balb/C nude mice, 10 mg/kg, PO, QD. In kind it is in vivo. As to the method:
The human esophageal squamous carcinoma cell line KYSE-520 was cultured in RPMI 1640 containing 10% fetal bovine serum placed in a 37° C., 5% CO2 sterile incubator. The cells were passaged 2-3 times per week, digested with 0.25% trypsin-EDTA. After terminating the digestion with the above complete medium, the system was centrifugated at 1000 rpm for 5 min. The supernatant was discarded, and the cells were resuspended and passaged at a ratio of 1:3-1:5. Cells in logarithmic phase were collected, resuspended in serum-free RPMI 1640, counted and adjusted to the appropriate density.
KYSE-520 cells (3×10^6 cells/mouse) were inoculated into the right ventral dorsum of approximately 6- to 8-week-old female Balb/C nude mice. Then the tumors grew to an average volume of about 200 mm^3, the tumors were randomly grouped according to the tumor volume and body weight (n=8-10). Administration was started on the day of grouping and was performed once daily, defining the day of grouping as day 0. Tumor diameters were measured twice a week with vernier calipers, and tumor volume was calculated by the formula TV (mm^3)=0.5×a×b^2, with a and b representing the long and short diameters (in mm) of the tumors, respectively. When the average tumor volume of the control group was about 800 mm^3, the experiment was terminated. The tumor tissues were isolated and weighed to calculate the tumor weight proliferation rate with T/Cweight %=TWT/TWC %, and TWT and TWC represent the tumor weight of the administered group and the vehicle control group, respectively.

T2 sequence (Q12809 whole entry): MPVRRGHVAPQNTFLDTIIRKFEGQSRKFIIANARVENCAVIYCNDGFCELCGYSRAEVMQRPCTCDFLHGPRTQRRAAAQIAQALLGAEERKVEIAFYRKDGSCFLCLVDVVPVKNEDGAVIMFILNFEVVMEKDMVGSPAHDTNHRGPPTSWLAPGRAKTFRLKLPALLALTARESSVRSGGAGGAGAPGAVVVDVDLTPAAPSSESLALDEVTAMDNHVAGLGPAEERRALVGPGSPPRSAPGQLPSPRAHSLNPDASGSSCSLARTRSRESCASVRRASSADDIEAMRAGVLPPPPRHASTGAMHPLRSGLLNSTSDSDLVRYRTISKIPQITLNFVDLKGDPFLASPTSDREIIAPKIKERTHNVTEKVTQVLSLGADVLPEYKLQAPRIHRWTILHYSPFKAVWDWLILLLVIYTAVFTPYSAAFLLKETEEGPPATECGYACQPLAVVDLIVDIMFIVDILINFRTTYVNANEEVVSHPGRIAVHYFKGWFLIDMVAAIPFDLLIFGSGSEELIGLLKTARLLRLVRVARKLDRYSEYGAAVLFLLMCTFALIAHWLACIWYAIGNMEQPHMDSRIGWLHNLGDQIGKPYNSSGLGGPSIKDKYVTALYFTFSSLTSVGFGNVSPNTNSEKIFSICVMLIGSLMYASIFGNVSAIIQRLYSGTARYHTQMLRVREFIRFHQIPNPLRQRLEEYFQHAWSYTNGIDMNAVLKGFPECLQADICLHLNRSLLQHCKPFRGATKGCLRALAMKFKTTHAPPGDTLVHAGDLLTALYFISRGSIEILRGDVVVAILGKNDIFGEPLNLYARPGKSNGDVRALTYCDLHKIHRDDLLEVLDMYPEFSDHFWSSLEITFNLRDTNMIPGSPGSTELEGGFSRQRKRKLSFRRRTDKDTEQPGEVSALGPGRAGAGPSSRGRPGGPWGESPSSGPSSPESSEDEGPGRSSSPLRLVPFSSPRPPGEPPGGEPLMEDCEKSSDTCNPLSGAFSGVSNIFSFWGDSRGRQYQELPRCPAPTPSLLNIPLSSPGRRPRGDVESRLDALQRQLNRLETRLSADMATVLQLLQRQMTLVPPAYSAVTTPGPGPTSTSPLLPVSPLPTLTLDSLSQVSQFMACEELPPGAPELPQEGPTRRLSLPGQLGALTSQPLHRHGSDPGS

Broadly, the IC50 is the concentration that gives 50% inhibition. On to `Nc1nc(N2CCC3(CC2)Cc2cc(F)ccc2C3N)nnc1C(=O)N1CCCn2nccc21` (stereo not drawn) [Compound 59], for which the half-inhibitory concentration (IC50) in assay [1] was 6 nM; in assay [2], 253 nM; in assay [3], > 30000 nM.
As for `Nc1ccc2c(n1)CCN2C(=O)c1ncc(N2CCC3(CC2)Cc2ccccc2C3N)nc1N` (stereo not drawn) [Compound 60], the 50% inhibitory concentration (IC50) in assay [1] stood at 4 nM; in assay [2], 46 nM. In addition, in assay [4], the “T/Cweight (tumor weight proliferation rate)” value (“T/Cweight” for short) is 44.62%.
In the case of `Nc1nc2c(s1)CN(C(=O)c1ncc(N3CCC4(CC3)Cc3ccccc3[C@H]4N)nc1N)CC2(F)F` [Compound 63], the results for the half-inhibitory concentration (IC50) in assay [1], in assay [2] and in assay [3] were 3 nM, < 5 nM and > 30000 nM, respectively. Besides, in assay [4], the “T/Cweight” value is listed as 28.94%.
`[2H]C1([2H])CN(C(=O)c2ncc(N3CCC4(CC3)Cc3ccc(OC)cc3C4N)nc2N)Cc2sc(N)nc21` (stereo not drawn) [Compound 70]: the 50% inhibitory concentration (IC50) in assay [2] is 25 nM; in assay [3], > 30000 nM. Also, in assay [4], the “T/Cweight” value was 35.04%.
Turning to `COc1ccc2c(c1)C(N)C1(CCN(c3cnc(C(=O)N4CCc5nc(N)sc5C4)c(N)n3)CC1)C2` (stereo not drawn) [Compound 82], the results for the half-inhibitory concentration (IC50) in assay [1], in assay [2] and in assay [3] were 4 nM, 25 nM and > 30000 nM, respectively.
For `[2H]C1([2H])CN(C(=O)c2ncc(N3CCC4(CC3)Cc3ccccc3C4N)nc2N)Cc2sc(N)nc21` (stereo not drawn) [Compound 108], in that order: 3 nM, 8 nM and > 30000 nM.
As to `Nc1nc2c(s1)CN(C(=O)c1ncc(N3CCC4(CC3)Cc3cc(F)ccc3C4N)nc1N)CC2(F)F` (stereo not drawn) [Compound 114], the 50% inhibitory concentration (IC50) was 7 nM in assay [1], 7 nM in assay [2] and > 30000 nM in assay [3]. Further, the “T/Cweight” value in assay [4] is 39.69%.
Regarding `COc1ccc2c(c1)C(N)C1(CCN(c3cnc(C(=O)N4Cc5sc(N)nc5C(F)(F)C4)c(N)n3)CC1)C2` (stereo not drawn) [Compound 125], the half-maximal inhibitory concentration (IC50) is 10 nM in assay [1] and > 30000 nM in assay [3].
In the case of `Nc1nc2c(s1)CN(C(=O)c1cnc(N3CCC4(CC3)Cc3ccccc3C4N)c(CO)n1)CC2(F)F` (stereo not drawn) [Compound 126], the IC50 in assay [1] was 6 nM; in assay [3], > 30000 nM.
